This is an account of results in patent publication US4935424A, “4 or 5-(substituted piperazinylalkyl)-2-aminothiazoles as antipsychotic agents” (priority 1988, dated 1990).

One assay deals with dopamine neuron firing. Briefly: Inhibition of dopamine neuron firing in rats. It counts as in vivo. The following applies: IP. The procedure: (§1) Thus, the compounds of Formula I were tested for their ability to inhibit locomotor activity in mice according to the assay described in Pharmacol. Biochem. Behav. 1978 (8) 97; for their ability to inhibit haloperidol binding in a receptor binding assay described in Mol. Pharmacol. 1976 (12), 800; for their ability to inhibit brain dopamine synthesis in rats according to the protocol described in Naumyn-Schmiedeberg's Arch. Pharmacol., 1976 (296) 5; and for their ability to inhibit dopamine neuron firing in rats according to the protocol described in Nature New Biology, 1973 (245) 123.

In a further assay the target is T1, haloperidol binding (Bos taurus, UniProt P20288).
T1 construct: from tissue
Briefly: Inhibition of haloperidol binding in a receptor binding assay. The note with it: for inhibition at 10 µM: at 10,000 nM. On the procedure: as §1

Assay [1] has as its system locomotor activity in mice. Briefly: Inhibition of locomotor activity in mice. The assay is classed as in vivo. The following applies: Mus musculus, IP. The procedure:
as §1

The test system of the next assay is brain dopamine synthesis. Briefly: Inhibition of brain dopamine synthesis in rats. It counts as in vivo. The following applies: Rattus norvegicus, IP. The procedure: as §1
The mark [2] stands for this setting: read-out: Inhibition of Haloperidol Binding (IC50 nM).

Where two headings read alike, the source gives them in different places.

T1 sequence (P20288 whole entry): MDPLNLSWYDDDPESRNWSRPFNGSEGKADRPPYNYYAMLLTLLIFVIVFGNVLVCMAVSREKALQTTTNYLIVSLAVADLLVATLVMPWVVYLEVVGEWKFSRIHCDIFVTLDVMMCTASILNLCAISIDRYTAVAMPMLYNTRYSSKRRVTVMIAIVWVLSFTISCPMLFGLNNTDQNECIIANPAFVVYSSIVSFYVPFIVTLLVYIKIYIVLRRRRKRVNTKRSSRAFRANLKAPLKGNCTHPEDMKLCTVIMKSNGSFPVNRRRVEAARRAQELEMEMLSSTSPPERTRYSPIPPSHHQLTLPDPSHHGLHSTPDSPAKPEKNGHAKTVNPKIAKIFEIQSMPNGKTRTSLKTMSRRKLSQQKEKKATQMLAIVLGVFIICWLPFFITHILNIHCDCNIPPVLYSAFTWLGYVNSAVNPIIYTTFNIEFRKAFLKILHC

With `Cc1nc(N)sc1CCCN1CCN(c2ncccn2)CC1` [Example 1, 4-Methyl-5-[3-[4-(2-pyrimidinyl)-1-piperazinyl]-propyl]-2-thiazolamine], the “Inhibition of Dopamine Neuron Firing in Rats” value (“Inhibition … in Rats” for short) with dopamine neuron firing (2.5 mg/kg) was found to be 90%. In addition, the IC50 at haloperidol binding (setting [2]) worked out at 370 nM. Besides, in assay [1], the ED50 was determined as 6.3 mg/kg. This compound also displayed an inhibition in vivo at 1 mg/kg in the assay with brain dopamine synthesis of 82%.
Take `Nc1nc(CCCCN2CCN(c3ncccn3)CC2)cs1` [Example 1a, 4-[4-[4-(2-Pyrimidinyl)-1-piperazinyl]butyl]-2-thiazolamine]: at haloperidol binding (setting [2]), the concentration for half-maximal inhibition (IC50) amounted to 1060 nM. This compound also yielded an ED50 in assay [1] of over 30 mg/kg.
For `Cc1nc(N)sc1CCN1CCN(c2ccccc2)CC1` [Example 1b, 4-Methyl-5-[2-(4-phenyl-1-piperazinyl)ethyl]-2-thiazolamine], in the assay on dopamine neuron firing (10 mg/kg), the “Inhibition … in Rats” value stood at 80%. Moreover, at 10 µM the inhibition at haloperidol binding was 100%. The compound also showed a median effective dose (ED50) in assay [1] of 1.5 mg/kg.
Consider `Nc1nc(CCCN2CCN(c3ccccc3)CC2)cs1` [Example 1c, 4-[3-(4-Phenyl-1-piperazinyl)propyl]-2-thiazolamine], for which, on haloperidol binding, at 10 µM the inhibition was 40%. Further, in assay [1], the ED50 came out at 2.4 mg/kg.
With `Cc1nc(N)sc1CCN1CC=C(c2ccccc2)CC1` [Example 1d, 5-[2-(3,6-dihydro-4-phenyl-1(2H)-pyridinyl)ethyl]-4-methyl-2-thiazolamine], the “Inhibition … in Rats” value in the assay with dopamine neuron firing (2.5 mg/kg) is given as 70%. The IC50 at haloperidol binding (setting [2]) is 400 nM. Also, the ED50 in assay [1] was found to be 0.88 mg/kg. The compound also returned an inhibition in vivo at 10 mg/kg in the assay on brain dopamine synthesis of 84%.
As for `Cl.Cl.Nc1nc(CCCN2CC=C(c3ccccc3)CC2)cs1` [Example 1e, 4-[3-(3,6-Dihydro-4-phenyl-1(2H)-pyridinyl)propyl]-2-thiazolamine, dihydrochloride], the “Inhibition … in Rats” value in the assay on dopamine neuron firing (2.5 mg/kg) came out at 78%. At haloperidol binding, this compound showed an IC50 of 346 nM. The compound further had an ED50 in assay [1] of 1.7 mg/kg. This compound also came in with an inhibition in vivo at 10 mg/kg in the assay on brain dopamine synthesis of 44%.
Take `Cc1nc(N)sc1CCN1CCN(c2ncccn2)CC1` [Example 1f, 4-Methyl-5-[2-[4-(2-pyrimidinyl)-1-piperazinyl]ethyl]-2-thiazolamine]: the IC50 at haloperidol binding (setting [2]) was 118 nM. The compound further came in with an ED50 in assay [1] of 1.4 mg/kg.
The like results for `Nc1nc(CCCN2CCN(c3ncccn3)CC2)cs1` [Example 1g, 4-[3-[4-(2-Pyrimidinyl)-1-piperazinyl]-propyl]-2-thiazolamine] were, in that order, 1600 nM and over 30 mg/kg.
As for `Cc1nc(N)sc1CCN1CCN(c2ccccn2)CC1` [Example 1h, 4-Methyl-5-[2-[4-(2-pyridinyl)-1-piperazinyl]ethyl]-2-thiazolamine], the “Inhibition … in Rats” value with dopamine neuron firing (2.5 mg/kg) was 100%. Besides, the IC50 at haloperidol binding (setting [2]) stood at 75 nM. The compound further yielded a median effective dose (ED50) in assay [1] of 1.4 mg/kg. In the assay on brain dopamine synthesis, this compound yielded an inhibition in vivo at 1 mg/kg of 87%.
On haloperidol binding, `Nc1nc(CCCN2CCN(c3ccccn3)CC2)cs1` [Example 1i, 4-[3-[4-(2-Pyridinyl)-1-piperazinyl]-propyl]-2-thiazolamine] registered an inhibition at 10 µM of 100%. In assay [1], this compound yielded an ED50 of 7.6 mg/kg. The compound also displayed an inhibition in vivo at 10 mg/kg in the assay with brain dopamine synthesis of 43%.
With `Cc1nc(N)sc1CCCN1CCN(c2ccccn2)CC1` [Example 1j, 4-Methyl-5-[3-[4-(2-pyridinyl)-1-piperazinyl]propyl]-2-thiazolamine], the “Inhibition … in Rats” value with dopamine neuron firing (2.5 mg/kg) is 98%. Besides, at haloperidol binding (setting [2]), the IC50 is 249 nM. The compound also returned an ED50 in assay [1] of 4.6 mg/kg. For the same compound, in the assay with brain dopamine synthesis, testing at 10 mg/kg gave an inhibition in vivo of 100%.
Take `Nc1nc(CCCCN2CCN(c3ccccn3)CC2)cs1` [Example 1k, 4-[4-[4-(2-Pyridinyl)-1-piperazinyl]-butyl]-2-thiazolamine]: at haloperidol binding (setting [2]), the IC50 turned out to be 488 nM. In addition, it took a dose of 5.5 mg/kg to reach the 50% effect level in assay [1] (ED50). In the assay on brain dopamine synthesis, this compound came in with an inhibition in vivo at 10 mg/kg of 63%.
Regarding `Nc1ncc(CCN2CCN(c3ccccn3)CC2)s1` [Example 2, 5-[2-[4-(2-pyridinyl)-1-piperazinyl]ethyl]-2-thiazolamine], in assay [1], the ED50 is 5.9 mg/kg. Further, testing at 10 mg/kg in the assay with brain dopamine synthesis gave an inhibition in vivo of 92%.
As for `Nc1ncc(CCN2CCN(c3ccccc3)CC2)s1` [Example 2a, 5-[2-(4-Phenyl-1-piperazinyl)ethyl]-2-thiazolamine], in assay [1], the ED50 was determined as 2.6 mg/kg.
As to `Nc1ncc(CCN2CC=C(c3ccccc3)CC2)s1` [Example 2b, 5-[2-(3,6-Dihydro-4-phenyl-1(2H)-pyridinyl)ethyl]-2-thiazolamine], it took a dose of 0.47 mg/kg to reach the 50% effect level in assay [1] (ED50). For the same compound, testing at 10 mg/kg in the assay on brain dopamine synthesis gave an inhibition in vivo of 25%.

A word on the IC50: it is the point on the concentration scale where inhibition reaches its midpoint. As a reminder, the ED50 is the midpoint of the dose-response relation. Higher therefore signals weaker potency. What is called inhibition in vivo is the relative decrease from the control value, in per cent. Usually inhibition stands for how much of the control response was suppressed. High values mean a response far below the control, low ones a response near the control.
